From US12673954B2 (BRISTOL-MYERS SQUIBB COMPANY, priority 2021, dated 2026) come the findings set out here.

The subject of test [1] is IRF pathway, THP1-Dual™ cells. Kind of test: STING reporter assay in THP1-Dual cells, IRF pathway (Lucia luciferase, QUANTI-Luc). The settings on record: Homo sapiens, THP1-Dual, 20 h, THP1-Dual cells, 10% human plasma, 20 hours; Lucia luciferase; 100% activation = 100 μM cGAMP; read-out: IRF (EC50 μM). It counts as cell-based, human. Summed up: (§1)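 THP-1-derived dual-reporter cells treated with serially diluted compounds (final top concentration 100 μM) for 20 h at 37° C. NF-κB read as SEAP via QUANTI-Blue at OD620; IRF read as Lucia luminescence via QUANTI-Luc after 5 min. 100% activation set by 100 μM cGAMP, baseline by DMSO.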
(In general: In a reporter assay the amount or activity of a reporter protein is the signal.)

In test [2] the test system is NF-κB pathway, THP1-Dual™ cells. Kind of test: STING reporter assay in THP1-Dual cells, NF-κB pathway (SEAP, QUANTI-Blue). The class given is cell-based, human. The settings on record: Homo sapiens, THP1-Dual, 20 h, THP1-Dual cells, 10% human plasma, 20 hours; SEAP; 100% activation = 100 μM cGAMP; read-out: NFkB (EC50 μM). Summed up: as §1

Bounds are passed on as bounds.

With `CCCn1cncc(C(=O)NCc2cc3cc(Cl)cc(C(=O)OC)c3o2)c1=O` [Example 67, Methyl 5-chloro-2-((1-propyl-6-oxo-1,6-dihydropyrimidine-5-carboxamido)methyl)benzofuran-7-carboxylate], the EC50 (in general, the concentration needed to bring the measured effect to its halfway point) in test [1] was 20 µM; in test [2], 32 µM.
In the same order, the values of `COC(=O)c1cc(Cl)cc2cc(CNC(=O)c3cncc4[nH]cnc34)oc12` [Example 68, Methyl 2-((3H-imidazo[4,5-c]pyridine-7-carboxamido)methyl)-5-chlorobenzofuran-7-carboxylate] are 1.7 µM and 2.1 µM.
In the same order, the values of `COC(=O)c1cc(Cl)cc2cc(CNC(=O)c3cncc4c3ncn4C)oc12` [Example 69, Methyl 5-chloro-2-((3-methyl-3H-imidazo[4,5-c]pyridine-7-carboxamido)methyl)benzofuran-7-carboxylate] are 1.3 µM and 2.3 µM.
In the case of `COC(=O)c1cc(Cl)cc2cc(CNC(=O)c3cncc4ncn(C)c34)oc12` [Example 70, Methyl 5-chloro-2-((1-methyl-1H-imidazo[4,5-c]pyridine-7-carboxamido)methyl)benzofuran-7-carboxylate], the EC50 was 24 µM in test [1] and above 100 µM in test [2].
Consider `COC(=O)c1cc(Cl)cc2cc(CNC(=O)c3cncc4[nH]c(C)nc34)oc12` [Example 71, Methyl 5-chloro-2-((2-methyl-3H-imidazo[4,5-c]pyridine-7-carboxamido)methyl)benzofuran-7-carboxylate], for which the EC50 in test [1] turned out to be 24 µM; in test [2], 33 µM.
For the molecule `COC(=O)c1cc(Cl)cc2cc(CNC(=O)c3cncc4scnc34)oc12` [Example 72, Methyl 5-chloro-2-((thiazolo[5,4-c]pyridine-7-carboxamido)methyl)benzofuran-7-carboxylate], the EC50 in test [1] was found to be 1.2 µM; in test [2], 17 µM.
For `COC(=O)c1cc(Cl)cc2cc(CNC(=O)c3cncnc3OC)oc12` [Example 73, Methyl 5-chloro-2-((4-methoxypyrimidine-5-carboxamido)methyl)benzofuran-7-carboxylate], the figures for the EC50 in test [1] and in test [2] were 2.1 µM and 2.6 µM, respectively.
With `CCOc1ncncc1C(=O)NCc1cc2cc(Cl)cc(C(=O)OC)c2o1` [Example 74, Methyl 5-chloro-2-((4-ethoxypyrimidine-5-carboxamido)methyl)benzofuran-7-carboxylate], the EC50 in test [1] is 3.3 µM; in test [2], 3.5 µM.
Take `COC(=O)c1cc(Cl)cc2cc(Cn3ccc4ncncc4c3=O)oc12` [Example 75, Methyl 5-chloro-2-((5-oxopyrido[4,3-d]pyrimidin-6(5H)-yl)methyl)benzofuran-7-carboxylate]: the EC50 was 22 µM in test [1] and 37 µM in test [2].
On to `COC(=O)c1cc(Cl)cc2cc(Cn3cnc4ccncc4c3=O)oc12` [Example 76, Methyl 5-chloro-2-((4-oxopyrido[4,3-d]pyrimidin-3(4H)-yl)methyl)benzofuran-7-carboxylate], for which the EC50 in test [1] was 3 µM; in test [2], 4.1 µM.
For the molecule `COC(=O)c1cc(Cl)cc2cc(CN3CCc4ccncc4C3=O)oc12` [Example 77, Methyl 5-chloro-2-((1-oxo-3,4-dihydro-2,7-naphthyridin-2(1H)-yl)methyl)benzofuran-7-carboxylate], the EC50 was found to be 5.5 µM in test [1] and 6.3 µM in test [2].
In the case of `COC(=O)c1cc(Cl)cc2cc(Cn3ccc4ccncc4c3=O)oc12` [Example 78, Methyl 5-chloro-2-((1-oxo-2,7-naphthyridin-2(1H)-yl)methyl)benzofuran-7-carboxylate], the EC50 in test [1] amounted to 3.4 µM; in test [2] it was 3.7 µM.
Consider `COC(=O)c1cc(Cl)cc2cc([C@H](C)NC(=O)c3cnn4cccnc34)oc12` [Example 79, Methyl (S)-5-chloro-2-(1-(pyrazolo[1,5-a]pyrimidine-3-carboxamido)ethyl)benzofuran-7-carboxylate], for which the figures for the EC50 in test [1] and in test [2] were 1.5 µM and 1.7 µM, respectively.
In the case of `COC(=O)c1cc(Br)cc2cc(CNC(=O)c3cnn4cccnc34)oc12` [Example 80, Methyl 5-bromo-2-((pyrazolo[1,5-a]pyrimidine-3-carboxamido)methyl)benzofuran-7-carboxylate], the results for the EC50 in test [1] and in test [2] were 0.8 µM and 1.1 µM, respectively.
As for `COC(=O)c1cc(Br)cc2cc(CN3CCc4ccncc4C3=O)oc12` [Example 81, Methyl 5-bromo-2-((1-oxo-3,4-dihydro-2,7-naphthyridin-2(1H)-yl)methyl)benzofuran-7-carboxylate], the EC50 in test [1] turned out to be 16 µM; in test [2] it was 22 µM.
Consider `COC(=O)c1cc(Br)cc2cc(CN3Cc4ccncc4C3=O)oc12` [Example 82, Methyl 5-bromo-2-((3-oxo-1,3-dihydro-2H-pyrrolo[3,4-c]pyridin-2-yl)methyl)benzofuran-7-carboxylate], for which the EC50 in test [1] amounted to 27 µM; in test [2], 20 µM.
In the same order, the values of `COC(=O)c1cc(Br)cc2cc(CN3Cc4ncncc4C3=O)oc12` [Example 83, Methyl 5-bromo-2-((5-oxo-5,7-dihydro-6H-pyrrolo[3,4-d]pyrimidin-6-yl)methyl)benzofuran-7-carboxylate] are 37 µM and 48 µM.
As to `COC(=O)Cc1cc(Br)cc2cc(CNC(=O)c3cnn4cccnc34)oc12` [Example 84, Methyl 2-(5-bromo-2-((pyrazolo[1,5-a]pyrimidine-3-carboxamido)methyl)benzofuran-7-yl)acetate], the EC50 in test [1] turned out to be 30 µM; in test [2], 27 µM.
For `COC(=O)c1cc(C)cc2cc(Cn3ccc4ccncc4c3=O)oc12` [Example 85, Methyl 5-methyl-2-((1-oxo-2,7-naphthyridin-2(1H)-yl)methyl)benzofuran-7-carboxylate], the EC50 in test [1] came out at 3.5 µM; in test [2], 3.6 µM.
Turning to `COC(=O)c1cc(C)cc2cc(Cn3cnc4ccncc4c3=O)oc12` [Example 86, Methyl 5-methyl-2-((4-oxopyrido[4,3-d]pyrimidin-3(4H)-yl)methyl)benzofuran-7-carboxylate], the figures for the EC50 in test [1] and in test [2] were 1.7 µM and 1.8 µM, respectively.
Regarding `COC(=O)c1cc(C)cc2cc(CN3CCc4ccncc4C3=O)oc12` [Example 87, Methyl 5-methyl-2-((1-oxo-3,4-dihydro-2,7-naphthyridin-2(1H)-yl)methyl)benzofuran-7-carboxylate], the EC50 was 5.5 µM in test [1] and 5.8 µM in test [2].
As to `COC(=O)c1cc(C)cc2cc(CN3Cc4ccncc4C3=O)oc12` [Example 88, Methyl 5-methyl-2-((3-oxo-1,3-dihydro-2H-pyrrolo[3,4-c]pyridin-2-yl)methyl)benzofuran-7-carboxylate], the EC50 in test [1] amounted to 21 µM; in test [2], 20 µM.
Consider `COC(=O)c1cc(C)cc2cc(CNC(=O)c3cnn4cccnc34)oc12` [Example 89, Methyl 5-methyl-2-((pyrazolo[1,5-a]pyrimidine-3-carboxamido)methyl)benzofuran-7-carboxylate], for which the EC50 in test [1] stood at 0.21 µM; in test [2], 0.19 µM.
As for `COC(=O)c1cc(C)cc2cc(CNC(=O)c3cnn4cc(C)cnc34)oc12` [Example 90, Methyl 5-methyl-2-((6-methylpyrazolo[1,5-a]pyrimidine-3-carboxamido)methyl)benzofuran-7-carboxylate], the EC50 was 2.2 µM in test [1] and 3 µM in test [2].
Turning to `COC(=O)c1cc(C)cc2cc(CNC(=O)c3cncc4[nH]cnc34)oc12` [Example 91, Methyl 2-((3H-imidazo[4,5-c]pyridine-7-carboxamido)methyl)-5-methylbenzofuran-7-carboxylate], the results for the EC50 in test [1] and in test [2] were 1.2 µM and 1.5 µM, respectively.
Regarding `COC(=O)c1cc(C)cc2cc(CNC(=O)c3cncc4cccnc34)oc12` [Example 92, methyl 2-((1,6-naphthyridine-8-carboxamido)methyl)-5-methylbenzofuran-7-carboxylate], the EC50 in test [1] was 0.8 µM; in test [2], 0.81 µM.
Regarding `COC(=O)c1cc(C)cc2cc(CNC(=O)c3c(N)nn4cccnc34)oc12` [Example 93, Methyl 2-((2-aminopyrazolo[1,5-a]pyrimidine-3-carboxamido)methyl)-5-methylbenzofuran-7-carboxylate], the EC50 in test [1] was 3.7 µM; in test [2], 6 µM.
Consider `COC(=O)c1cc(C)cc2cc(CNC(=O)c3cncnc3OC)oc12` [Example 94, Methyl 2-((4-methoxypyrimidine-5-carboxamido)methyl)-5-methylbenzofuran-7-carboxylate], for which the EC50 worked out at 1.8 µM in test [1] and 2.1 µM in test [2].
On to `CCOc1ncncc1C(=O)NCc1cc2cc(C)cc(C(=O)OC)c2o1` [Example 95, Methyl 2-((4-ethoxypyrimidine-5-carboxamido)methyl)-5-methylbenzofuran-7-carboxylate], for which the EC50 in test [1] amounted to 13 µM; in test [2], 16 µM.
`COC(=O)Cc1cc(C)cc2cc(CNC(=O)c3cnn4cccnc34)oc12` [Example 98, Methyl 2-(5-methyl-2-((pyrazolo[1,5-a]pyrimidine-3-carboxamido)methyl)benzofuran-7-yl)acetate]: the results for the EC50 in test [1] and in test [2] were 11 µM and 10 µM, respectively.
On to `COC(=O)c1cc(C2CC2)cc2cc(CNC(=O)c3cnn4cccnc34)oc12` [Example 99, Methyl 5-cyclopropyl-2-((pyrazolo[1,5-a]pyrimidine-3-carboxamido)methyl)benzofuran-7-carboxylate], for which the EC50 in test [1] turned out to be 17 µM; in test [2] it was 12 µM.
